Reference: patent US20170196859A1, “PHARMACEUTICAL COMPOSITION COMPRISING PYRAZINE CARBOXAMIDE COMPOUND AS ACTIVE INGREDIENT” (Astellas Pharma Inc., priority 2014, published 2017)

Target: T1, JAK3 kinase (Homo sapiens, UniProt P52333)
T1 construct: purchased Carna Bioscience QSS Assist JAK3_MSA kit
T1 sequence (P52333 1-1124): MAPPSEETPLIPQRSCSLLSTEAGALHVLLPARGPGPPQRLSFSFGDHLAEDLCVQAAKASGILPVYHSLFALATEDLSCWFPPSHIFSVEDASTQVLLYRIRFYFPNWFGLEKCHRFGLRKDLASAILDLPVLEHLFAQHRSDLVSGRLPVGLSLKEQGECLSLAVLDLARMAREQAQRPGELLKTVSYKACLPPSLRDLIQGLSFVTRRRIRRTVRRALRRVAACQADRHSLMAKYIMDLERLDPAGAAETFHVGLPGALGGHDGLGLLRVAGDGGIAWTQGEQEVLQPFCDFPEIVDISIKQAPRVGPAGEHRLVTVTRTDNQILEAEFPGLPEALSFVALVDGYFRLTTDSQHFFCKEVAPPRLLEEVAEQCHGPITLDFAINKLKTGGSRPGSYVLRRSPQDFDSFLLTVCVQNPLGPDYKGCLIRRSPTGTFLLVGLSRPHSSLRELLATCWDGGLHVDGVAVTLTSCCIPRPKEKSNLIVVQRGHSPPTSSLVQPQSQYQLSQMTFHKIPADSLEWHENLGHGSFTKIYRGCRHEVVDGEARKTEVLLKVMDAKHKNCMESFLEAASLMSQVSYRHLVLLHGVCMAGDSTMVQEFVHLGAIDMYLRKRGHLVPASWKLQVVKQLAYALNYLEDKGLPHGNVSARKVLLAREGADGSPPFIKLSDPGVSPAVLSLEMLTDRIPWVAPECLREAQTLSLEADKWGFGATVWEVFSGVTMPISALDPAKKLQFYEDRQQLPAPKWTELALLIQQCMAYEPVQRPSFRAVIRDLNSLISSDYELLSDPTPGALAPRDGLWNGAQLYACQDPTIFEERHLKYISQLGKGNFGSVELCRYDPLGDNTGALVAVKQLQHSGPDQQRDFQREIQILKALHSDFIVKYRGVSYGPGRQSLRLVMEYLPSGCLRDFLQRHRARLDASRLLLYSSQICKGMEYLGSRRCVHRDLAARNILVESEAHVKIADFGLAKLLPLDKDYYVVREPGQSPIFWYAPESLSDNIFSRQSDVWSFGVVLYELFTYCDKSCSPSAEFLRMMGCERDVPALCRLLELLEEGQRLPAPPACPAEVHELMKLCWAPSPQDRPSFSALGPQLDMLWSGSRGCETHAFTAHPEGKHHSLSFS
Experiment: JAK3 kinase inhibitory activity (QSS Assist JAK3_MSA kit)
Assay type: biochemical
Settings: 30 min preincubation, ATP 1 mM
Procedure: The JAK3 kinase inhibitory activity was evaluated using QSS Assist JAK3_MSA kit (Carna Bioscience).
The test compound B was dissolved in dimethyl sulfoxide (DMSO) to prepare a solution at a 100-fold concentration as compared to the test concentration. The solution was also 25-fold diluted with an appurtenant assay buffer to obtain a test compound B solution. In addition, JAK3 kinase appurtenant to the kit was used for the reaction.
5 μL of the test compound B solution at a 4-fold concentration, prepared using the aforementioned assay buffer, and 10 μL of a JAK3 kinase solution at a 2-fold concentration were mixed within a well of a 384 well plate, and incubated at room temperature for 30 minutes. Continuously, 5 μL of a substrate peptide/ATP/MgCl2 solution at a 4-fold concentration was added thereto to perform the reaction at room temperature for 1 hour. The substrate peptide was used at a final concentration of 1 μM, ATP at a final concentration of 1 mM, and MgCl2 at a final concentration of 5 mM. Thereafter, 60 μL of an appurtenant termination buffer was added thereto to stop the reaction. The JAK3 kinase activity was calculated by quantifying a product conversion ratio obtained from the substrate peptide peak height and the product (phosphorylated substrate peptide) peak height with LabChip EZ Reader II (PerkinElmer). […]

IC50: 0.44 nM
Compound: C=CC(=O)N1CC[C@@H](Oc2nc(Nc3ccc(N4CCC(N5CCN(C)CC5)CC4)cc3)c(C(N)=O)nc2CC)C1 [test compound B, 5-{[(3R)-1-acryloylpyrrolidin-3-yl]oxy}-6-ethyl-3-({4-[4-(4-methylpiperazin-1-yl)piperidin-1-yl]phenyl}amino)pyrazine-2-carboxamide monomethanesulfonate]
